This is an account of results in patent US20260206755A1, “COMPOUNDS AND COMPOSITIONS HAVING KNOCK-DOWN OR BLOOD FEED INHIBITION ACTIVITY AGAINST INSECT PESTS” (priority 2017, published 2026).

This data set concerns Anopheles stephensi. In words: Anopheles stephensi treated well plate contact test: knockdown and mortality. The format is in vivo. The procedure: Examples Anopheles stephensi (Indian Malaria Mosquito)
The individual wells of twelve (12) well tissue culture plates were treated with 200 μl of an ethanol solution containing a test compound of Table 1 or Table 2 at a defined concentration and repeated with also 200 μl of an ethanol solution containing in addition 2 ppm TFNA-AM. Once the deposits were dry, five non-blood fed adult female Anopheles stephensi (between two to five day old) were added to each well, and sustained with a 10% sucrose solution in a cotton wool plug. Assessment of the knockdown after 1 hour, and mortality after 24 and 48 hours was carried out.
In case of multiple tests, the mean value is reported.

[1] abbreviates: test compound 0.2 ppm plus 2 ppm TFNA-AM, after 24 hours.
Where [2] appears, read: test compound 0.2 ppm plus 2 ppm TFNA-AM, after 48 hours.
The mark [3] stands for this setting: test compound 0.2 ppm plus 2 ppm TFNA-AM, knockdown after 1 hour.
[4] abbreviates: test compound 0.2 ppm, without TFNA-AM, after 24 hours.
Where [5] appears, read: test compound 0.2 ppm, without TFNA-AM, after 48 hours.
The mark [6] stands for this setting: test compound 0.2 ppm, without TFNA-AM, knockdown after 1 hour.
[7] abbreviates: test compound 2 ppm plus 2 ppm TFNA-AM, after 24 hours.
Setting [8] is: test compound 2 ppm plus 2 ppm TFNA-AM, after 48 hours.
[9] abbreviates: test compound 2 ppm plus 2 ppm TFNA-AM, knockdown after 1 hour.
[10] abbreviates: test compound 2 ppm, without TFNA-AM, after 24 hours.
Where [11] appears, read: test compound 2 ppm, without TFNA-AM, after 48 hours.
Where [12] appears, read: test compound 2 ppm, without TFNA-AM, knockdown after 1 hour.
The mark [13] stands for this setting: test compound 20 ppm plus 2 ppm TFNA-AM, after 24 hours.
[14] abbreviates: test compound 20 ppm plus 2 ppm TFNA-AM, after 48 hours.
Setting [15] is: test compound 20 ppm plus 2 ppm TFNA-AM, knockdown after 1 hour.
Setting [16] is: test compound 20 ppm, without TFNA-AM, after 24 hours.
Setting [17] is: test compound 20 ppm, without TFNA-AM, after 48 hours.
Setting [18] is: test compound 20 ppm, without TFNA-AM, knockdown after 1 hour.
The mark [19] stands for this setting: test compound 200 ppm plus 2 ppm TFNA-AM, after 24 hours.
Where [20] appears, read: test compound 200 ppm plus 2 ppm TFNA-AM, after 48 hours.
Setting [21] is: test compound 200 ppm plus 2 ppm TFNA-AM, knockdown after 1 hour.
[22] abbreviates: Anopheles stephensi, test compound 0.2 ppm, without TFNA-AM, after 24 hours, read-out: mortality % 24, without TFNA-AM.
[23] abbreviates: Anopheles stephensi, test compound 0.2 ppm, without TFNA-AM, after 48 hours, read-out: mortality % 48, without TFNA-AM.
Setting [24] is: Anopheles stephensi, test compound 0.2 ppm, without TFNA-AM, knockdown after 1 hour, read-out: Knock Down, without TFNA-AM.
[25] abbreviates: Anopheles stephensi, test compound 2 ppm, without TFNA-AM, after 24 hours, read-out: mortality % 24, without TFNA-AM.
The mark [26] stands for this setting: Anopheles stephensi, test compound 2 ppm, without TFNA-AM, after 48 hours, read-out: mortality % 48, without TFNA-AM.
Setting [27] is: Anopheles stephensi, test compound 2 ppm, without TFNA-AM, knockdown after 1 hour, read-out: Knock Down, without TFNA-AM.
Where [28] appears, read: Anopheles stephensi, test compound 20 ppm, without TFNA-AM, after 24 hours, read-out: mortality % 24, without TFNA-AM.
[29] abbreviates: Anopheles stephensi, test compound 20 ppm, without TFNA-AM, after 48 hours, read-out: mortality % 48, without TFNA-AM.
Setting [30] is: Anopheles stephensi, test compound 20 ppm, without TFNA-AM, knockdown after 1 hour, read-out: Knock Down, without TFNA-AM.
Setting [31] is: test compound 0.02 ppm plus 2 ppm TFNA-AM, after 24 hours.
[32] abbreviates: test compound 0.02 ppm plus 2 ppm TFNA-AM, after 48 hours.
Where [33] appears, read: test compound 0.02 ppm plus 2 ppm TFNA-AM, knockdown after 1 hour.
The mark [34] stands for this setting: Anopheles stephensi, test compound 200 ppm, without TFNA-AM, after 24 hours, read-out: mortality % 24, without TFNA-AM.
Where [35] appears, read: Anopheles stephensi, test compound 200 ppm, without TFNA-AM, after 48 hours, read-out: mortality % 48, without TFNA-AM.
Where [36] appears, read: Anopheles stephensi, test compound 200 ppm, without TFNA-AM, knockdown after 1 hour, adult females, read-out: Knock Down, without TFNA-AM.

Where two headings read alike, the source gives them in different places.

In the case of `N#Cc1ccc(CC(=NNC(=O)Nc2ccc(OC(F)(F)F)cc2)c2cccc(C(F)(F)F)c2)cc1` (mixture of isomers) [Metaflumizone], the “mortality % 24, with TFNA-AM” value by setting is: under setting [1], 40%; under setting [7], 100%; under setting [13], 100%; under setting [19], 100%. The “mortality % 48, with TFNA-AM” value under setting [2] was 60%; the “mortality % 48, with TFNA-AM” value under setting [8] was determined as 100%; the “mortality % 48, with TFNA-AM” value under setting [14] worked out at 100%; the “mortality % 48, with TFNA-AM” value under setting [20] stood at 100%. Also, the “Knock Down, with TFNA-AM” value is reported as 100% under setting [3], 100% under setting [9], 100% under setting [15] and 100% under setting [21]. Also, the “mortality % 24, without TFNA-AM” value is, setting by setting: under setting [4], 0%; under setting [10], 0%; under setting [16], 0%; (test compound 200 ppm, without TFNA-AM, after 24 hours) 0%. Also, the “mortality % 48, without TFNA-AM” value was found to be 0% under setting [5]; 0% under setting [11]; 0% under setting [17]; 80% (test compound 200 ppm, without TFNA-AM, after 48 hours). Besides, the “Knock Down, without TFNA-AM” value is, setting by setting: under setting [6], 0%; under setting [12], 0%; under setting [18], 0%; (test compound 200 ppm, without TFNA-AM, knockdown after 1 hour, adult females) 0%.
Broadly, the mortality is the share of the test organisms that died. Take `Cc1c(COC(=O)[C@@H]2[C@H](/C=C(\Cl)C(F)(F)F)C2(C)C)cccc1-c1ccccc1` (racemic) [Bifenthrin]: the mortality at 0.02 ppm is, setting by setting: (Anopheles stephensi, test compound 0.02 ppm, without TFNA-AM, after 24 hours, read-out: mortality % 24, without TFNA-AM) 20%; (Anopheles stephensi, test compound 0.02 ppm, without TFNA-AM, after 48 hours, read-out: mortality % 48, without TFNA-AM) 60%. In addition, the pest or weed control at 0.02 ppm (Anopheles stephensi, test compound 0.02 ppm, without TFNA-AM, knockdown after 1 hour, read-out: Knock Down, without TFNA-AM) stood at 20%. Also, the mortality at 0.2 ppm is, setting by setting: under setting [22], 100%; under setting [23], 100%. Under setting [24], the pest or weed control at 0.2 ppm is 20%. The mortality at 2 ppm is 100% under setting [25] and 100% under setting [26]. Besides, the pest or weed control at 2 ppm under setting [27] stood at 100%. In addition, the mortality at 20 ppm runs as follows: under setting [28], 100%; under setting [29], 100%. Under setting [30], the pest or weed control at 20 ppm came to 100%. Besides, the “mortality % 24, with TFNA-AM” value is, setting by setting: under setting [31], 100%; under setting [1], 100%; under setting [7], 100%; under setting [13], 100%. For the same molecule, the “mortality % 48, with TFNA-AM” value under setting [32] worked out at 100%; the “mortality % 48, with TFNA-AM” value under setting [2] came to 100%; the “mortality % 48, with TFNA-AM” value under setting [8] is 100%; the “mortality % 48, with TFNA-AM” value under setting [14] worked out at 100%. Further, the “Knock Down, with TFNA-AM” value is, setting by setting: under setting [33], 100%; under setting [3], 100%; under setting [9], 100%; under setting [15], 100%.
As to `CC(C)=C[C@@H]1[C@@H](C(=O)O[C@H](C#N)c2cccc(Oc3ccccc3)c2)C1(C)C` (relative stereo) [d-d, trans cyphenothrin], the “mortality % 24, with TFNA-AM” value amounted to 60% under setting [31], 60% under setting [1], 100% under setting [7] and 100% under setting [13]. Besides, the “mortality % 48, with TFNA-AM” value is, setting by setting: under setting [32], 20%; under setting [2], 100%; under setting [8], 100%; under setting [14], 100%. Also, the “Knock Down, with TFNA-AM” value runs as follows: under setting [33], 100%; under setting [3], 100%; under setting [9], 100%; under setting [15], 100%. The “mortality % 24, without TFNA-AM” value by setting is: (test compound 0.02 ppm, without TFNA-AM, after 24 hours) 0%; under setting [4], 0%; under setting [10], 0%; under setting [16], 40%. The “mortality % 48, without TFNA-AM” value (test compound 0.02 ppm, without TFNA-AM, after 48 hours) was 0%; the “mortality % 48, without TFNA-AM” value under setting [5] turned out to be 0%; the “mortality % 48, without TFNA-AM” value under setting [11] stood at 0%; the “mortality % 48, without TFNA-AM” value under setting [17] turned out to be 60%. Besides, the “Knock Down, without TFNA-AM” value runs as follows: (test compound 0.02 ppm, without TFNA-AM, knockdown after 1 hour) 0%; under setting [6], 0%; under setting [12], 0%; under setting [18], 0%.
Regarding `Cc1ccc(/N=C/N(C)/C=N/c2ccc(C)cc2C)c(C)c1` [Amitraz], the mortality at 0.2 ppm turned out to be 0% under setting [22] and 0% under setting [23]. Also, the pest or weed control at 0.2 ppm under setting [24] is 0%. Moreover, the mortality at 2 ppm is, setting by setting: under setting [25], 0%; under setting [26], 0%. For the same molecule, under setting [27], the pest or weed control at 2 ppm worked out at 0%. In addition, the mortality at 20 ppm is, setting by setting: under setting [28], 0%; under setting [29], 0%. Also, the pest or weed control at 20 ppm under setting [30] was found to be 0%. In addition, the mortality at 200 ppm under setting [34] came to 0% and the mortality at 200 ppm under setting [35] is 0%. Further, under setting [36], the pest or weed control at 200 ppm is 0%. In addition, the “mortality % 24, with TFNA-AM” value by setting is: under setting [1], 20%; under setting [7], 20%; under setting [13], 20%; under setting [19], 100%. Further, the “mortality % 48, with TFNA-AM” value is recorded as 0% under setting [2], 0% under setting [8], 40% under setting [14] and 100% under setting [20]. Also, the “Knock Down, with TFNA-AM” value is 100% under setting [3], 100% under setting [9], 100% under setting [15] and 100% under setting [21].
Turning to `C/C=C(\C)C(=O)O[C@H]1C[C@@H](OC(C)=O)[C@@]2(C(=O)OC)CO[C@H]3[C@@H](O)[C@@](C)([C@]45O[C@@]4(C)[C@H]4C[C@@H]5O[C@@H]5OC=C[C@@]54O)[C@H]4[C@]1(CO[C@]4(O)C(=O)OC)[C@@H]32` [Azadirachtin], the mortality at 0.2 ppm under setting [22] was found to be 0% and the mortality at 0.2 ppm under setting [23] was determined as 0%. For the same molecule, the pest or weed control at 0.2 ppm under setting [24] is 0%. Further, the mortality at 2 ppm reads like this: under setting [25], 0%; under setting [26], 0%. Under setting [27], the pest or weed control at 2 ppm was found to be 0%. For the same molecule, the mortality at 20 ppm runs as follows: under setting [28], 0%; under setting [29], 0%. Moreover, under setting [30], the pest or weed control at 20 ppm is 0%. Also, the mortality at 200 ppm amounted to 0% under setting [34] and 0% under setting [35]. The pest or weed control at 200 ppm under setting [36] was 0%. Besides, the “mortality % 24, with TFNA-AM” value under setting [1] turned out to be 20%; the “mortality % 24, with TFNA-AM” value under setting [7] is 20%; the “mortality % 24, with TFNA-AM” value under setting [13] turned out to be 60%; the “mortality % 24, with TFNA-AM” value under setting [19] amounted to 80%. The “mortality % 48, with TFNA-AM” value under setting [2] is 20%; the “mortality % 48, with TFNA-AM” value under setting [8] turned out to be 20%; the “mortality % 48, with TFNA-AM” value under setting [14] came out at 40%; the “mortality % 48, with TFNA-AM” value under setting [20] is recorded as 80%. Also, the “Knock Down, with TFNA-AM” value by setting is: under setting [3], 100%; under setting [9], 100%; under setting [15], 100%; under setting [21], 100%.
